Results as given in ChEMBL document CHEMBL1201862, “PubChem BioAssay data set” (2004).
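Step 1: Grow cells in 96-well plates. Step 2: Expose to compound for 48 hours at 5 concentrations. Step 3: Interpolate endpoints linearly; if unreached, use highest concentration. GI50: concentration for 50% inhibition of growth.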 Active and inactive are the calls of the source. No stated cut-off is given here; in the data, active = GI50 up to about 1.1 µM and inactive = higher.

Experiments:
Experiment in all cases: inhibition of tumour cell growth, NCI panel, 48 h
A498 = system: A498
CCRF-CEM = system: CCRF-CEM
DMS-273 = system: DMS-273
HCT-116 = system: HCT-116
HCT-15 = system: HCT-15
HT-29 = system: HT-29
MOLT-4 = system: MOLT-4
Malme-3M = system: Malme-3M
OVCAR-3 = system: OVCAR-3
OVCAR-8 = system: OVCAR-8
RPMI-8226 = system: RPMI-8226
RXF 393 = system: RXF 393
SF-268 = system: SF-268
SK-MEL-2 = system: SK-MEL-2
SNB-75 = system: SNB-75
TK-10 = system: TK-10
KM12 = system: KM12

| SMILES | GI50 (A498) | GI50 (CCRF-CEM) | GI50 (DMS-273) | GI50 (HCT-116) | GI50 (HCT-15) [µM] | GI50 (HT-29) | GI50 (MOLT-4) | GI50 (Malme-3M) | GI50 (OVCAR-3) | GI50 (OVCAR-8) | GI50 (RPMI-8226) | GI50 (RXF 393) | GI50 (SF-268) | GI50 (SK-MEL-2) | GI50 (SNB-75) | GI50 (TK-10) | GI50 (KM12) |
| --- | --- | --- | --- | --- | --- | --- | --- | --- | --- | --- | --- | --- | --- | --- | --- | --- | --- |
| CCOC(=O)C1(Br)S(=O)(=O)OCCOS1(=O)=O | > 100 µM (inactive) | > 100 µM (inactive) | > 100 µM (inactive) | > 100 µM (inactive) | > 100 | > 100 µM (inactive) | > 100 µM (inactive) | > 100 µM (inactive) | > 100 µM (inactive) | > 100 µM (inactive) | > 100 µM (inactive) | > 100 µM (inactive) | > 100 µM (inactive) | > 100 µM (inactive) | > 100 µM (inactive) | > 100 µM (inactive) | – |
| CC(=O)Nc1ccc(SC#N)c2c(NC(C)=O)cccc12 | > 100 µM (inactive) | 30.3 µM (inactive) | > 100 µM (inactive) | > 86.3 µM (inactive) | 53.8 | > 100 µM (inactive) | 28.7 µM (inactive) | > 100 µM (inactive) | 89.9 µM (inactive) | > 100 µM (inactive) | 24.4 µM (inactive) | > 100 µM (inactive) | 98.4 µM (inactive) | > 100 µM (inactive) | > 100 µM (inactive) | > 100 µM (inactive) | > 66.8 µM (inactive) |
| CCOC(=O)C1=C(O)C(=O)c2ccccc2C1=O | > 100 µM (inactive) | > 100 µM (inactive) | > 100 µM (inactive) | > 100 µM (inactive) | > 100 | > 100 µM (inactive) | > 100 µM (inactive) | 50.6 µM (inactive) | > 100 µM (inactive) | > 100 µM (inactive) | > 100 µM (inactive) | > 100 µM (inactive) | > 100 µM (inactive) | > 100 µM (inactive) | > 100 µM (inactive) | > 100 µM (inactive) | > 100 µM (inactive) |
| CC(=O)OCCOCNC(=S)N/N=C/c1ccc([N+](=O)[O-])s1 | 86.7 µM (inactive) | 4.72 µM (inactive) | 28.1 µM (inactive) | 20.1 µM (inactive) | 30.4 | 20.7 µM (inactive) | 28.8 µM (inactive) | 48.4 µM (inactive) | 29.3 µM (inactive) | 45.5 µM (inactive) | 29.1 µM (inactive) | > 100 µM (inactive) | 61.9 µM (inactive) | 67.3 µM (inactive) | > 100 µM (inactive) | > 100 µM (inactive) | 34.4 µM (inactive) |
| CC1CCCC2(O1)OC1CC(=O)OC1C1=C2C(=O)c2ccccc2C1=O (centres undefined) | 17.7 µM (inactive) | 1.57 µM (inactive) | 1.8 µM (inactive) | – | 2.8 | 2.42 µM (inactive) | 1.58 µM (inactive) | 2.45 µM (inactive) | 2.72 µM (inactive) | 2.51 µM (inactive) | 1.22 µM (inactive) | 2.13 µM (inactive) | 4.02 µM (inactive) | 2.33 µM (inactive) | 11.2 µM (inactive) | 9.12 µM (inactive) | 12.1 µM (inactive) |
| O=C(O)C12CC3CC(CC(F)(C3)C1)C2 | > 100 µM (inactive) | > 100 µM (inactive) | > 100 µM (inactive) | > 100 µM (inactive) | – | > 100 µM (inactive) | > 100 µM (inactive) | > 100 µM (inactive) | > 100 µM (inactive) | > 100 µM (inactive) | > 100 µM (inactive) | > 100 µM (inactive) | – | > 100 µM (inactive) | 65.5 µM (inactive) | > 100 µM (inactive) | > 100 µM (inactive) |
| CCOC(=N)CC(=O)Nc1cccc(C)c1C | > 100 µM (inactive) | > 100 µM (inactive) | > 100 µM (inactive) | > 100 µM (inactive) | – | > 100 µM (inactive) | 2.77 µM (inactive) | > 100 µM (inactive) | > 100 µM (inactive) | > 100 µM (inactive) | – | > 100 µM (inactive) | > 100 µM (inactive) | > 100 µM (inactive) | > 100 µM (inactive) | > 100 µM (inactive) | > 100 µM (inactive) |
| COc1ccccc1NC(=O)C1=C(C)NC(C)=C(C(=O)Nc2ccccc2OC)C1c1ccccc1Cl | > 100 µM (inactive) | 38.4 µM (inactive) | > 100 µM (inactive) | 52.8 µM (inactive) | 56.2 | 64.1 µM (inactive) | 27.2 µM (inactive) | > 100 µM (inactive) | > 100 µM (inactive) | > 100 µM (inactive) | 30.7 µM (inactive) | – | > 100 µM (inactive) | 88.7 µM (inactive) | 46.9 µM (inactive) | > 100 µM (inactive) | 61 µM (inactive) |
| CCN(CC)CCCC(C)Nc1c2ccc(Cl)cc2nc2cc(Cl)ccc12 (centres undefined) | 8.67 µM (inactive) | 1.76 µM (inactive) | 3.32 µM (inactive) | 2.27 µM (inactive) | 3.04 | 2.47 µM (inactive) | 1.98 µM (inactive) | 12.2 µM (inactive) | 5.71 µM (inactive) | 4.55 µM (inactive) | 2.23 µM (inactive) | 3.23 µM (inactive) | 4.9 µM (inactive) | 15.7 µM (inactive) | 7.03 µM (inactive) | – | 3.56 µM (inactive) |
| COc1cccc2c1C(=O)c1c(O)c3c(c(O)c1C2=O)C[C@@](O)(C(=O)CN1CCOCC1)C[C@@H]3OC1CC(N)C(O)C(C)O1 (some centres undefined) | 8.55 µM (inactive) | – | 2.23 µM (inactive) | 1.89 µM (inactive) | 12.4 | 0.000764 µM (active) | – | 3.27 µM (inactive) | 0.000912 µM (active) | 4.47 µM (inactive) | 1.61 µM (inactive) | 6.41 µM (inactive) | 4.47 µM (inactive) | 9.48 µM (inactive) | 5.07 µM (inactive) | – | 4.23 µM (inactive) |
| CC1=NCCc2cc3[nH]c4ccccc4c3cc21 | 11.5 µM (inactive) | 12.5 µM (inactive) | 13.6 µM (inactive) | 12.8 µM (inactive) | 21.7 | 14.8 µM (inactive) | 11.5 µM (inactive) | 10.7 µM (inactive) | 50.2 µM (inactive) | 24.6 µM (inactive) | 13.2 µM (inactive) | 6.4 µM (inactive) | 22.1 µM (inactive) | 11.3 µM (inactive) | 23.2 µM (inactive) | – | 20.8 µM (inactive) |
| Cc1ccc(C(=O)N2c3ccccc3N(C)n3cccc3C2CC(=O)O)cc1 (centres undefined) | > 100 µM (inactive) | > 100 µM (inactive) | > 100 µM (inactive) | – | > 100 | > 100 µM (inactive) | > 100 µM (inactive) | > 100 µM (inactive) | > 100 µM (inactive) | > 100 µM (inactive) | > 100 µM (inactive) | > 100 µM (inactive) | > 100 µM (inactive) | > 100 µM (inactive) | > 100 µM (inactive) | > 100 µM (inactive) | > 100 µM (inactive) |
| C=C1C(=O)[C@@]23CC[C@H]4[C@@](C)(CCC[C@@]4(C)C(=O)OC)[C@@H]2CC[C@]1(O)C3 | 1.71 µM (inactive) | 0.2 µM (active) | 1.67 µM (inactive) | 0.953 µM (active) | 1.26 | 1.27 µM (inactive) | 0.271 µM (active) | – | 1.84 µM (inactive) | 1.47 µM (inactive) | 0.286 µM (active) | – | 1.9 µM (inactive) | 1.71 µM (inactive) | 2.37 µM (inactive) | – | 2.39 µM (inactive) |
| C/N=c1/ss/c(=N\C(SC)=[N+](C)C)n1C.[O-][Cl+3]([O-])([O-])[O-] | – | 3.97 µM (inactive) | > 100 µM (inactive) | > 100 µM (inactive) | > 100 | 4.98 µM (inactive) | 21.1 µM (inactive) | – | – | > 100 µM (inactive) | – | > 100 µM (inactive) | > 100 µM (inactive) | > 100 µM (inactive) | – | > 100 µM (inactive) | > 100 µM (inactive) |
| C[C@]12CCC(=O)C(O)=C1CCC2=O | > 100 µM (inactive) | > 100 µM (inactive) | > 100 µM (inactive) | > 100 µM (inactive) | > 100 | > 100 µM (inactive) | > 100 µM (inactive) | > 100 µM (inactive) | > 100 µM (inactive) | > 100 µM (inactive) | > 100 µM (inactive) | > 100 µM (inactive) | > 100 µM (inactive) | – | > 100 µM (inactive) | > 100 µM (inactive) | > 100 µM (inactive) |
| C/C=C/C(=O)[C@@H](O)C(C)C | – | – | > 100 µM (inactive) | > 100 µM (inactive) | > 100 | > 100 µM (inactive) | > 100 µM (inactive) | > 100 µM (inactive) | > 100 µM (inactive) | > 100 µM (inactive) | > 100 µM (inactive) | > 100 µM (inactive) | > 100 µM (inactive) | > 100 µM (inactive) | > 100 µM (inactive) | > 100 µM (inactive) | > 100 µM (inactive) |
| O=C1C(c2ccccc2)=C(c2ccccc2)C(c2ccccc2)/C1=C1\C(=O)C(c2ccccc2)=C(c2ccccc2)C1c1ccccc1 (centres undefined) | > 100 µM (inactive) | – | > 100 µM (inactive) | > 100 µM (inactive) | > 100 | > 100 µM (inactive) | > 100 µM (inactive) | > 100 µM (inactive) | > 100 µM (inactive) | > 100 µM (inactive) | > 100 µM (inactive) | > 100 µM (inactive) | > 100 µM (inactive) | > 100 µM (inactive) | > 100 µM (inactive) | > 100 µM (inactive) | > 100 µM (inactive) |
| O=C1C2=C(C3=NCCc4c[nH]c1c43)c1c(cc(Br)c(O)c1Br)CCN2 | 20.2 µM (inactive) | 2.56 µM (inactive) | 12.6 µM (inactive) | 14.5 µM (inactive) | 11.5 | 6.59 µM (inactive) | 2.81 µM (inactive) | – | 2.73 µM (inactive) | 8.53 µM (inactive) | 5.01 µM (inactive) | 14.8 µM (inactive) | 9.25 µM (inactive) | 13.6 µM (inactive) | 16.3 µM (inactive) | – | 13.4 µM (inactive) |
